Experimental data: patent US9149572B2, “Chondroitin sulfate having decreased molecular weight and use thereof” (Seikagaku Corporation, priority 2007, dated 2015)

What was measured:
AGE production = experiment: Inhibition of AGE production (glucose and bovine serum albumin, fluorescence), Example 5; type: biochemical; conditions: positive control substance 1 mM; 37° C., 4 weeks
Description: An experiment was performed according to the method of T. Kiho et al. (Biosci Biotechnol Biochem, 68: 200, 2004). To be more specific, a test substance was dissolved in 0.1 M phosphate buffer (pH 7.4) containing 500 mM glucose and 10 mg/mL bovine serum albumin at a concentration of 0.1% (w/v), and the resulting solution was incubated at 37° C. for 4 weeks. After 4 weeks, a value of fluorescence emitted by AGE was measured at an excitation light wavelength of 355 nm and a measurement wavelength of 460 nm, and the amount of produced AGE was determined, and then, an inhibition rate of AGE production was calculated according to the following calculation equation. Inhibition rate of AGE production(%)=[1−(Fluorescence value when test substance was added)/(Fluorescence value when test substance was not added)]×100 [Equation 1] (Experimental Results)
Incidentally, as the test substance, the following substances were used. Further, as a positive control substance, 1 mM aminoguanidine (a known AGE production inhibitor) was used.

[1] = tested on: HL-60 cells differentiated into neutrophil-like cells; experiment: ROS scavenging in phorbol ester-stimulated HL-60 cells (L-012 luminescence), Example 6; type: cell-based
Description: An experiment was performed according to the method of Olga T. et al. (Toxicological Science, 76: 376, 2003). To be more specific, HL-60 cells differentiated into neutrophil-like cells were suspended in a culture medium at 2×10^6 cells/mL, and the resulting cell suspension was added to a 96-well plate at 50 μL/well. Then, a test substance was added to the well at 50 μL/well (final concentration: 0.03%, 0.1%, and 0.3% (w/v)). Further, the culture medium was added to the well as a negative control at 50 μL/well. […] As a background, the plate to which the culture medium was added in place of the phorbol ester was incubated in the same manner. After completion of the incubation, a luminescence intensity (CPS) was measured using a multilabel counter, ARVOSX 1420 (manufactured by PerkinElmer) and an ROS scavenging rate was calculated according to the following calculation equation. […] Incidentally, as the test substance, the following substances were used. Further, as a positive control substance, 20 nM staurosporine (a known phorbol ester signal inhibitor) was used.

[2] = tested on: peritoneum (ultrafiltration capacity); experiment: Peritoneal equilibration test after repeated peritoneal dialysis fluid administration (water removal rate), Example 3; type: in vivo, Wistar male rat; conditions: 0.1% (w/v) in Midpeliq 250, into the peritoneal cavity once daily 15 mL/body for 7 days; vs control group; FIG. 1; CSC 10 kDa by method of Example 2
Description: To a Wistar male rat at 8 weeks of age, Midpeliq 250 (trade name, a peritoneal dialysis fluid containing glucose at a concentration of 2.5% (w/v) manufactured by Terumo Corporation) in which a test substance was dissolved at a concentration of 0.1% (w/v) was repetitively administered into the peritoneal cavity once daily at 15 mL/body for 7 days under ether anesthesia. To a control group (Control), Midpeliq 250 was administered in the same manner. On the next day after the final administration, a peritoneal equilibration test was performed, and the peritoneal function was evaluated. To be more specific, Midpeliq 250 was injected into the peritoneal cavity at 60 mL/kg, and 4 hours thereafter, the fluid remaining in the peritoneal cavity was recovered. The amount of the recovered fluid was measured, and the ultrafiltration capacity (water removal rate) of the peritoneum was evaluated.

[3] = Table 4, test substance 0.1% (w/v), CSC 10 kDa by method of Example 1

Molecule	ROS scavenging rate [1, 3] [%]	other results
N=C(N)NN [Aminoguanidine, aminoguanidine]		Inhibition rate of AGE production (AGE production): 52.7%
CN[C@@H]1C[C@H]2O[C@@](C)([C@@H]1OC)n1c3ccccc3c3c4c(c5c6ccccc6n2c5c31)C(=O)NC4 [Staurosporine, staurosporine, reference compound]		ROS scavenging rate ([1]; Table 4, positive control substance 20 nM): 97.4%; ROS scavenging rate ([1]; Table 5, positive control substance 20 nM): 98.1%
Chondroitin sulfate A, sodium salt (whale cartilage), SG [CSA 30 kDa]	33.4	
Chondroitin sulfate C, sodium salt (shark cartilage), SG [CSC 30 kDa]	5.0	effect of protecting the peritoneum (action of inhibiting a decrease in water removal rate) [2]: statistically significant effect was not observed
Chondroitin sulfate E, sodium salt (squid cartilage) [CSE 75 kDa]	21.9	
Chondroitin, sodium salt [Ch 5 kDa]	13.6	
